Data from ChEMBL document CHEMBL3751677, “Cardanol-derived AChE inhibitors: Towards the development of dual binding derivatives for Alzheimer's disease” (Eur J Med Chem, 2016).
Active and inactive are the calls of the source. The rule behind the calls is not given here.

Key:
[1] = target: T1, Acetylcholinesterase (Electrophorus electricus, UniProt O42275); assay: Inhibition of electric eel acetylcholine esterase preincubated for 10 mins followed by the addition of […] as substrate measured after 5 mins by Ellman's method
[2] = target: Cholinesterase (Equus caballus, UniProt P81908); assay: Inhibition of horse butyrylcholine esterase preincubated for 10 mins followed by the addition of […] as substrate measured after 5 mins by Ellman's method
[3] = Selectivity index, ratio of IC50 for horse butyrylcholine esterase to IC50 for electric eel acetylcholine esterase
[4] = system: HT-29; assay: Cytotoxicity against human HT-29 cells at 10 uM by LDH release assay; format: cell-based; conditions: ht-29, 10 µM
[5] = target: T1, Acetylcholinesterase; assay: Non-competitive inhibition of electric eel acetylcholine esterase using […] as substrate by Ellman's method
[6] = target: Amyloid-beta precursor protein (Homo sapiens) (UniProt P05067); assay: Inhibition of Amyloid beta42 (unknown origin) self aggregation assessed as Abeta fibril formation at 50 uM for 24 hrs by ThT-based fluorometric assay
[7] = system: HT-29; assay: Cytotoxicity against human HT-29 cells assessed as LDH release at 100 uM after 24 hrs; format: cell-based; conditions: ht-29, 24 h
[8] = system: HT-29; assay: Cytotoxicity against human HT-29 cells at 10 times IC50 by LDH release assay; format: cell-based
[9] = target: Acetylcholinesterase (Homo sapiens, UniProt P22303)
Description: Inhibition of human acetylcholine esterase preincubated for 10 mins followed by the addition of 550 uM of acetylcholine iodide as substrate measured after 20 mins by Ellman's method

[10] = target: T1, Acetylcholinesterase; assay: Mixed inhibition of electric eel acetylcholine esterase using […] as substrate by Ellman's method
[11] = Cytotoxicity against human HT-29 cells assessed as decrease in cell viability after 24 hrs by calcein-AM/propidium iodide based fluorescence analysis; conditions: read-out: INH

T1 sequence (O42275 whole entry): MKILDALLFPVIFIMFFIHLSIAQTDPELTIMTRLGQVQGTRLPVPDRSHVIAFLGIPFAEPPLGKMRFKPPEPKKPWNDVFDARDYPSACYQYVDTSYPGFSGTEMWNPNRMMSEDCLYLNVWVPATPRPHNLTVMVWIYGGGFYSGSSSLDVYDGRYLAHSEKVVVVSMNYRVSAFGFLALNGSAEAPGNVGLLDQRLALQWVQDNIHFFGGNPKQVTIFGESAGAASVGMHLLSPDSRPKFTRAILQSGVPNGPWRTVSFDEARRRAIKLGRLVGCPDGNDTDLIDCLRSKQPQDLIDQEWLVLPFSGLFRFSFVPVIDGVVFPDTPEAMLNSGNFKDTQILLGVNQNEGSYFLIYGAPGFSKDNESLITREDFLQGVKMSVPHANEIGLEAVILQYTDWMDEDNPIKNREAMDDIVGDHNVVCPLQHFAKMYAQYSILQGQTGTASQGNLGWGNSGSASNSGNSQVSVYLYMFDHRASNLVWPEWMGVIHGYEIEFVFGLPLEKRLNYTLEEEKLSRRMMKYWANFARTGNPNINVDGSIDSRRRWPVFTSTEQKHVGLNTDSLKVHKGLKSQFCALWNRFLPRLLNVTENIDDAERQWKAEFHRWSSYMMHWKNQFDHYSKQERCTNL
Sequence of Cholinesterase (P81908 whole entry): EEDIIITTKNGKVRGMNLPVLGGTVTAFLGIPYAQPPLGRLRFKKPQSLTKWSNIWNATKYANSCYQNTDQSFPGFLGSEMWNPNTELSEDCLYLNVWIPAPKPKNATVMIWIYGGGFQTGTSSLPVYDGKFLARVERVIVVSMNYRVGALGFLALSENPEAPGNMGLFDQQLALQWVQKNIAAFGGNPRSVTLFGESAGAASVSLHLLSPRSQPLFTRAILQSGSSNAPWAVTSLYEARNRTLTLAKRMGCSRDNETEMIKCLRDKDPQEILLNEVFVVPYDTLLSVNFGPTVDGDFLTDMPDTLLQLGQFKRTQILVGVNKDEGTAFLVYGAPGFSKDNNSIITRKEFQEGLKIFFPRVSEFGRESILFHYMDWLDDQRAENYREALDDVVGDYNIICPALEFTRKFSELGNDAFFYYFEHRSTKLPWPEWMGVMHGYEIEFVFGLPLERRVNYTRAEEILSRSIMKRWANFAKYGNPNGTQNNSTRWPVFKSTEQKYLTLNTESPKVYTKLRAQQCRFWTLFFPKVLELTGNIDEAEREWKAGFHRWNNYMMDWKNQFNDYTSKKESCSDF
Sequence of Acetylcholinesterase (Homo sapiens, UniProt P22303) (P22303 whole entry): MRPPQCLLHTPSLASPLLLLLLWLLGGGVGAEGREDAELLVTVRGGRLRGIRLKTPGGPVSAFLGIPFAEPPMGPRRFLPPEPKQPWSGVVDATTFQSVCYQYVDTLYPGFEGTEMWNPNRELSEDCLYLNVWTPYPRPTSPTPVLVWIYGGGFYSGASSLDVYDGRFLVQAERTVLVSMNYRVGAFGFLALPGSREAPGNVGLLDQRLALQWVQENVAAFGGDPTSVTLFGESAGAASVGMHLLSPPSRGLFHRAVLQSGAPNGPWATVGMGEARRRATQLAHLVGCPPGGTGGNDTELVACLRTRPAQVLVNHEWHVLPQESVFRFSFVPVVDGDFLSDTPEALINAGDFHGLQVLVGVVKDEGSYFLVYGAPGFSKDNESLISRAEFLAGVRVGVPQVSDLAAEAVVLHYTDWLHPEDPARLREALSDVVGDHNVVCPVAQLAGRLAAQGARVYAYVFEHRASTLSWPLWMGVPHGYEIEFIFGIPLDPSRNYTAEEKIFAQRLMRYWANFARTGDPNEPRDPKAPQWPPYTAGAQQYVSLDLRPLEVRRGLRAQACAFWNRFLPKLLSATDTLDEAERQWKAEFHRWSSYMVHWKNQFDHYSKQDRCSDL
Sequence of Amyloid-beta precursor protein (Homo sapiens) (P05067 whole entry): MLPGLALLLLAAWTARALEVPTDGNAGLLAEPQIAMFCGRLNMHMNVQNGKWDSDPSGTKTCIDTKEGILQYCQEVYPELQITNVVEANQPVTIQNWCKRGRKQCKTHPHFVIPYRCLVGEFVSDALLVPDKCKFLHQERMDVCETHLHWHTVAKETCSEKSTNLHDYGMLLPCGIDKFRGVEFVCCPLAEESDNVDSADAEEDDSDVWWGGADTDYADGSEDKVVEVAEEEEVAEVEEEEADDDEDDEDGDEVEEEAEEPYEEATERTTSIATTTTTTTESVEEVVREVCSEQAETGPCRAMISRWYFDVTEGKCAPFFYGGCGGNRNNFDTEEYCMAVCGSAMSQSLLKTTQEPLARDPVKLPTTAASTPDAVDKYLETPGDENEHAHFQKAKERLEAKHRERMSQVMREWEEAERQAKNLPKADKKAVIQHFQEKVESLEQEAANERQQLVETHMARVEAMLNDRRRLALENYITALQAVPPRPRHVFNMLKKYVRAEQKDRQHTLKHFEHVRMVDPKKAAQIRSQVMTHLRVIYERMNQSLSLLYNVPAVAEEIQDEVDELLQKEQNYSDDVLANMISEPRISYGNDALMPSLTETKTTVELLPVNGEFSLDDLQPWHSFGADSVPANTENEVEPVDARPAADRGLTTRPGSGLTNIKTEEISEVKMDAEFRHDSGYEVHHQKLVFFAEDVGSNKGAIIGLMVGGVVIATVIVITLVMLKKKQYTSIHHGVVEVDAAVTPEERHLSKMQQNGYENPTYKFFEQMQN

| SMILES | IC50 [1] | IC50 [2] | Ratio IC50 [3] | Activity [4] | Ki [5] | inhibition [6] | Activity [7] | Activity [8] | IC50 [9] | Ki [10] | cytotoxicity at 24 h [11] |
| --- | --- | --- | --- | --- | --- | --- | --- | --- | --- | --- | --- |
| COc1cccc(CCCCCCCCN2CCCC(OC(C)=O)C2)c1 (racemic) | 16.1 µM | 19 µM | 1.2 | Non-toxic | 19 µM | – | – | – | – | – | – |
| COc1cccc(CCCCCCCCN2CCCC(OC(=O)N(C)C)C2)c1 (racemic) | 14.3 µM | 23.5 µM | 1.7 | Non-toxic | 22.4 µM | – | – | – | – | – | – |
| CCN(CCCCCCCCc1cccc(OC)c1)Cc1ccccc1OC | 6.6 µM | 5 µM | 0.8 | Non-toxic | 24.4 µM | inactive | Toxic | Toxic | 5.65 µM | – | – |
| CCN(CCCCCCCCc1cccc(OC)c1)Cc1ccccc1 | 16.1 µM | 8 µM | 0.5 | Non-toxic | 10.4 µM | – | – | – | – | – | – |
| COc1cccc(CCCCCCCCN2CCCC2)c1 | 19.6 µM | 16.4 µM | 0.8 | Non-toxic | – | – | – | – | – | 22.4 µM | – |
| COc1cccc(CCCCCCCCN2CCC(OC(=O)N(C)C)C2)c1 (racemic) | 13.7 µM | 22.8 µM | 1.7 | Non-toxic | 8.6 µM | – | – | – | – | – | – |
| COc1cccc(CCCCCCCCNCc2ccccc2OC)c1 | 17.2 µM | 3.1 µM | 0.2 | Non-toxic | 17 µM | – | Toxic | – | – | – | 46.3% |
